The source of these data is paper PMC10582583, “The novel cyclophilin inhibitor C105SR reduces hepatic ischaemia–reperfusion injury via mitoprotection” (JHEP Reports, 2023).

Assay [1] deals with CypD (Homo sapiens, UniProt P30405). Kind of assay: CypD PPIase activity, chymotrypsin-coupled assay. Format: biochemical. The conditions noted are these: for inhibition of CypD PPIase activity by diastereoisomers: 10 μM (Fig. 2A); for IC50: Table 2, enzyme assay.
The test system of assay [2] is AML-12 cells. Kind of assay: mPTP opening, CoCl2-calcein AM fluorescence-quenching assay, hypoxia/reoxygenation. Format: cell-based, mouse. Particulars: for prevention of mPTP opening (loss of calcein fluorescence): 1 μM, 4 h hypoxia, 1 h reoxygenation. As to the method:
We next evaluated the ability of compounds C105SR and C110SR to inhibit mPTP opening in cells. The hepatocyte cell line AML-12 was subjected to 4 h of hypoxia followed by 1 h of reoxygenation and mPTP opening was monitored using the CoCl2-calcein-acetoxymethyl ester (AM) fluorescence-quenching method.[19] Calcein-AM is a membrane permeable fluorophore which passively diffuses in all subcellular compartments including mitochondria. In the cell, the AM group of the fluorophore is cleaved by ubiquitous intracellular esterases, generating a hydrophilic product that is retained within the cell. The cells are then loaded with the divalent cobalt cation (Co^2+), which quenches calcein fluorescence in all subcellular compartments except the mitochondrial matrix, because the inner mitochondrial membrane is impermeable to cobalt. However, when mPTP is open, cobalt enters mitochondria and quenches mitochondrial calcein fluorescence. […]
Hypoxia/reoxygenation (H/R) in vitro model. AML-12 mouse hepatocyte line was obtained from American Type Culture Collection (ATCC) and maintained in DMEM/F12 culture medium at 37°C with 5% CO2. HepaRG human hepatocyte line was obtained from American Type Culture Collection (ATCC) and maintained in William’S E culture medium at 37°C with 5% CO2.When indicated, cells were incubated in phosphate buffered saline at 37°C in a hypoxic chamber filled with 94% N2, 1% O2, 5% CO2 for 4 h to mimic ischemic conditions. Then, cells were transferred to a CO2 incubator at 37°C in regular DMEM/F12 culture medium for 1 or 2 h under normoxic conditions (74% N2, 21% O2, 5% CO2). SMCypIs or vehicle (DMSO) were added during the hypoxia period, during the reoxygenation period, or during both. CsA and ALV were used as positive controls for hepatic protection against H/R injury.
Monitoring of mPTP opening. mPTP opening was monitored in AML-12 cells using the CoCl2-calcein AM fluorescence-quenching assay. Cells were loaded with 1 µM calcein-AM (green) for 20 min. Then, 1 mM CoCl2 was added and cells were incubated for another 10 min. Cells were washed and subjected to 4 h of hypoxia followed by 1 h of reoxygenation. Calcein fluorescence was measured using a spectrofluorimeter at excitation and emission wavelengths of 485 nm and 535 nm, respectively. Images were acquired using a standard inverted fluorescence microscope (Zeiss Axio, […]
media during the entire H/R period. Images shown are representative images of 12-18 images. […]
Optical density of purple formazan product was measured at 550 nm. […]

Assay [3] deals with AML-12 cells. Description: Caspase 3/7 activity assay, hypoxia/reoxygenation. Format: cell-based, mouse. The conditions noted are these: applied during hypoxia and reoxygenation; 4 h hypoxia, 2 h reoxygenation. On the procedure:
Necrosis is the major cause of cell death during hepatic IRI. However, mPTP opening also leads to apoptosis resulting from mitochondrial swelling, rupture of the outer mitochondrial membrane and subsequent release of cytochrome C into the cytosol.[20] We investigated whether C105SR and C110SR protected against mPTP opening-induced apoptotic cell death.
Mouse serum analysis. Blood was collected at 6 h of reperfusion. Alanine aminotransferase (ALT) and aspartate aminotransferase (AST) activities were measured on an automated analyzer in the Biochemistry Department of Henri Mondor Hospital.
Histological Analysis. Hematoxylin and eosin staining was performed on 4-μm thick formalin-fixed paraffin-embedded tissue sections. […] Necrosis areas were quantified with […]
TUNEL Assay. […] The number of TUNEL-positive cells were quantified using QuPath on slides scanned at x20 magnification using a virtual slide scanning system (Axio scan7/ZEN slidescan).
Caspase 3/7 activity assay. Caspase 3/7 activity was assessed using the commercially Caspase-Glo® 3/7 assay (Promega, Madison, Wisconsin) following the manufacturer’s instructions.
Briefly, Caspase-Glo® 3/7 Reagent was incubated with the cells and the caspase3/7 activity was determined by measuring luminescence with a luminometer (Berthold). Caspase3/7 activity was expressed as a percentage of the untreated control. […]

For assay [4], the system named is AML-12 cells. Kind of assay: Propidium iodide staining, hypoxia/reoxygenation. Particulars: 1 μM; 4 h hypoxia, 1 h reoxygenation. Format: cell-based, mouse. As to the method: To assess whether the new SMCypIs reduced mPTP opening-induced cell death, propidium iodide fluorescence was measured in cells that had been co-loaded with calcein-AM. As expected, the loss of calcein fluorescence in cells subjected to hypoxia/reoxygenation was associated with enhanced propidium iodide fluorescence (Fig. 3A and 3C).
Calcium retention capacity (CRC) assay. Isolated liver mitochondria (1 mg/mL) energized with 5 mM glutamate/malate were incubated in a buffer allowing respiration of mitochondria (100 mM KCl, 50 mM sucrose, 10 mM HEPES, 5 mM KH2PO4, pH 7.4 at 30°C) supplemented with 1 µM calcium green 5N fluorescent probe. Mitochondria were pulsed with sequential additions of CaCl2 (20 µM) until mPTP opening along with rapid calcium release happened. The calcium concentration in the extra-mitochondrial medium was monitored with a Jasco FP-6300 spectrofluorimeter (Jasco, Bouguenais, France) at 506 nm excitation and 532 nm emission wavelengths.
Mitochondrial swelling assay. Mitochondrial swelling was assessed by measuring changes in absorbance at 540 nm using a Jasco V-530 spectrophotometer (Bouguenais, France) equipped with magnetic stirring and thermostatic control (30°C). […]
Monitoring of mPTP opening. mPTP opening was monitored in AML-12 cells using the CoCl2-calcein AM fluorescence-quenching assay. […] Calcein fluorescence was measured using a spectrofluorimeter at excitation and emission wavelengths of 485 nm and 535 nm, respectively. Images were acquired using a standard inverted fluorescence microscope (Zeiss Axio, […]
Propidium iodide staining. […] Fluorescence was measured using an Infinite 200 Pro fluorescent plate reader (Tecan, Mannedorf, Switzerland) at excitation and emission wavelengths of 533 nm and 617 nm, respectively. Images were acquired using a standard inverted fluorescence microscope (Zeiss Axio, Oberkochen, Germany). […]
Cell viability assays. Lactate dehydrogenase (LDH) release in culture medium was assessed using the commercially non-radioactive CytoTox-96 kit (Promega, Madison, Wisconsin) following the manufacturer’s instructions. […]

CypD, sequence (P30405 30-207): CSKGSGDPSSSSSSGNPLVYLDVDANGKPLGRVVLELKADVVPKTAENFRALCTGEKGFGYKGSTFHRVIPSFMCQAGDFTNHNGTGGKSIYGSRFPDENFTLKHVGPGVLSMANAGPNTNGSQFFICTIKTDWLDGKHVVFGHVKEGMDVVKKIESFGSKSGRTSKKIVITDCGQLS

As usually defined, the IC50 is the concentration needed to halve the response being measured. The low end stands for greater potency in that assay, the high end for weaker potency in that assay. `COc1ccc(Br)cc1[C@H](NC(=O)NCc1ccc2c(c1)CCCN2)C(=O)N1CCC[C@@H]1c1cccc2ccsc12` [Compound C105SR, 1-((S)-2-((R)-2-(benzo[b]thiophen-7-yl)pyrrolidin-1-yl)-1-(5-bromo-2-methoxyphenyl)-2-oxoethyl)-3-((1,2,3,4-tetrahydroquinolin-6-yl)methyl)urea]: in assay [1], the “inhibition of CypD PPIase activity by diastereoisomers” value is reported as “inhibited CypD PPIase activity” and the IC50 was found to be 5 ± 1 nM. For the same molecule, the “inhibition of mPTP opening” value in assay [2] (0.5 μM) is on record as “inhibited”. For the same molecule, the “prevention of mPTP opening (loss of calcein fluorescence)” value in assay [2] is recorded as “substantially prevented”. Also, the “protection against hypoxia/reoxygenation-induced cell apoptosis (caspase 3/7 activity)” value in assay [3] is given as “protected against hypoxia/reoxygenation-induced cell apoptosis”. In addition, the propidium iodide fluorescence entry in assay [4] is “low propidium iodide fluorescence”.
Take `COc1ccc(Br)cc1[C@H](NC(=O)NCc1ccc(N)cc1)C(=O)N1CCC[C@@H]1c1cccc2ccsc12` [Compound C110SR, 1-(4-aminobenzyl)-3-((S)-2-((R)-2-(benzo[b]thiophen-7-yl)pyrrolidin-1-yl)-1-(5-bromo-2-methoxyphenyl)-2-oxoethyl)urea]: in assay [1], the “inhibition of CypD PPIase activity by diastereoisomers” value is reported as “inhibited CypD PPIase activity” and inhibition was half-maximal at 8 ± 2 nM (IC50). Also, the “prevention of mPTP opening (loss of calcein fluorescence)” value in assay [2] is “substantially prevented”. The “protection against hypoxia/reoxygenation-induced cell apoptosis (caspase 3/7 activity)” value in assay [3] is given as “protected against hypoxia/reoxygenation-induced cell apoptosis”. Besides, the propidium iodide fluorescence entry in assay [4] is “low propidium iodide fluorescence”.
